PMC2603307 (Chemistry & biology, 2008)

Target: T1, E. coli GCH I (FolE, B2153) (Escherichia coli, UniProt P0A6T5)
T1 sequence (P0A6T5 2-222): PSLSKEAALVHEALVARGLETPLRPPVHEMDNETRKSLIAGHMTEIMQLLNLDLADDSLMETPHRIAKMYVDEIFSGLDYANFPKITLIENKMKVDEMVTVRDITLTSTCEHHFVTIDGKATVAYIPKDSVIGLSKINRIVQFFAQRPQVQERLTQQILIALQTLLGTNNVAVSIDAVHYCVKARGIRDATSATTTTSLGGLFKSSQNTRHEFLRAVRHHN
Assay: LC-MS of product
Format: biochemical
Settings: 20 mM Tris-SO4 pH 8.0, 2 mM dithiothreitol, 0.1 M KCl, 100 uM GTP, 120 min, ambient temperature

Nc1nc2c(ncn2[C@@H]2O[C@H](COP(=O)(O)OP(=O)(O)OP(=O)(O)O)[C@@H](O)[C@H]2O)c(=O)[nH]1 [GTP]
LC-MS of product: product produced by ToyD with that produced with E. coli GCH I (FolE, B2153)
